The results in this text go back to patent US20260250300A1, “POLYMORPHS AND THEIR USE FOR TREATING CANCER” (Cairn Therapeutics, Inc., priority 2023, published 2026).

Format in all cases: physicochemical
Series [1] is described as follows: Dynamic vapor sorption (DVS) analysis. Conditions: 25° C., 5 to 95% RH. The procedure:
Different polymorphic forms of a compound may have different hygroscopic properties. […] A sample weight of less than 10 mg was loaded into a metal-coated quartz pan for analysis. The sample was analyzed at 25° C. after equilibrated to 5% relative humidity (RH) in 10% RH steps from 5 to 95% RH (adsorption cycle) and from 95 to 5% RH (desorption cycle). The movement from one step to the next occurred either after satisfying the equilibrium criterion of 0.01% weight change in 5 minutes or, if the equilibrium criterion was not met, after 90 minutes. The percent weight change values are calculated using Microsoft Excel®. The DVS analysis was carried out using a TA Instruments Q5000 Dynamic Vapor Sorption analyzer. […]

Series [2] can be described thus: Stability study of crystalline Forms A and C at 25° C./60% RH and 40° C./75% RH, analysed by XRPD. As to conditions: after 4 weeks. How it is done: A sample of each of crystalline Forms A and C was placed in an uncapped vial and exposed to 25° C./60% RH and 40° C./75% relative humidity (“RH”) for 4 weeks (Table 24). The resultant samples were analyzed by XRPD at T=1, 2, and 4 weeks to evaluate their physical stability.
(§1) A Rigaku SmartLab X-Ray Diffractometer was configured in Bragg-Brentano reflection geometry equipped with a beam stop and knife edge to reduce incident beam and air scatter. No filter was used for crystalline Form C anhydrate crystalline Form E DMSO solvate. Spinning rate of 17 rpm was used for crystalline Form C anhydrate analysis. Other parameters are the same as described in Table 27.

Series [3] in a line: Conversion rate of crystalline Form A hydrate to crystalline Form C anhydrate in ethanol at about 50° C., XRPD. As to conditions: slurry in absolute ethanol at about 50° C., 1 hour. How it is done: The conversion rate of the crystalline Form A hydrate to the crystalline Form C anhydrate in ethanol at about 50° C. was investigated (Table 25). Slurries were prepared using Compound 1 crystalline Form A hydrate as starting material. […] Each slurry was stirred magnetically at about 50° C. and subsequently vacuum filtered to collect the solid at given times. The resulting solids were analyzed by XRPD immediately. […] A Rigaku SmartLab X-Ray Diffractometer was configured in Bragg-Brentano reflection geometry equipped with a beam stop and knife edge to reduce incident beam and air scatter. […] Spinning rate of 17 rpm was used for crystalline Form C anhydrate analysis. Other parameters are the same as described in Table 27.

Series [4] can be described thus: Relative stability of Form A hydrate and Form C anhydrate in ethanol and ethanol/water slurries. How it is done: The relative stability of the crystalline Form A hydrate and Compound 1 crystalline Form C anhydrate was evaluated in ethanol and ethanol/water between ambient temperature and 50° C.
Crystalline Form C anhydrate was prepared by slurrying crystalline Form A hydrate in absolute ethanol at 40° C. for about two days (Sample 1, FIG. 25A). Attempts to prepare amorphous material by cold precipitation and lyophilization were carried out but were unsuccessful. […] The lyophilization experiment produced material having an XRPD pattern consistent with crystalline Form E DMSO solvate (FIG. 25C).
To prepare the crystalline Form C anhydrate, 249 mg of Compound 1 crystalline Form A hydrate was placed in an 8 mL glass vial followed by 2.0 mL of absolute ethanol. The resulting slurry was stirred magnetically at 40° C. for about two days. The slurry was vacuum filtered and the solids allowed to air dry for 15 minutes at room temperature.

Series [5] is described as follows: Slurry experiments using Compound 1 crystalline Form A hydrate in methanol and methanol:water, XRPD. As to conditions: two days, 30 mg. The procedure:
The nature of this peak is unknown. […]
as §1

Setting [6] is: listed as Compound 1 crystalline Form A hydrate.

Regarding `CN1Oc2cc3c(c4cccc(c24)C1=O)[C@H](CCl)CN3C(=O)c1cc2cc(NC(=O)c3cc4ccccc4[nH]3)ccc2[nH]1` [Crystalline Form C anhydrate, (S)—N-(2-(10-(Chloromethyl)-5-methyl-4-oxo-5,8,9,10-tetrahydro-4H-pyrrolo[3′,2′: 5,6]naphtho[1,8-de][1,2]oxazine-8-carbonyl)-1H-indol-5-yl)-1H-indole-2-carboxamide], the results for the DVS weight gain result in series [1] (listed as Compound 1 Crystalline Form C anhydrate) and in series [1] (listed as Compound 1 crystalline Form C anhydrate) were “Weight gain of 0.35% at 5-95% RH” and 0.35%, respectively.
Consider `CN1Oc2cc3c(c4cccc(c24)C1=O)[C@H](CCl)CN3C(=O)c1cc2cc(NC(=O)c3cc4ccccc4[nH]3)ccc2[nH]1` [Crystalline Form A hydrate, (S)—N-(2-(10-(Chloromethyl)-5-methyl-4-oxo-5,8,9,10-tetrahydro-4H-pyrrolo[3′,2′: 5,6]naphtho[1,8-de][1,2]oxazine-8-carbonyl)-1H-indol-5-yl)-1H-indole-2-carboxamide], for which the “crystalline Form conversion (physical stability)” value in series [2] was “No crystalline Form conversion was observed”. Further, the XRPD Result result is listed as “converted to crystalline Form C anhydrate completely” in series [3], “remained that of the crystalline Form A hydrate” in series [5] (95:5 MeOH:water) and “remained that of the crystalline Form A hydrate” in series [5] (MeOH). For the same compound, the form conversion result is reported as “converts to the crystalline Form C anhydrate” in series [4] (absolute ethanol, about 40° C., about two days) and “converted to crystalline Form C anhydrate” in series [4] (ethanol at about 50° C., slurrying for four days). Besides, in series [4] (ethanol and ethanol/water, between ambient temperature and 50° C.), the “relative stability (form conversion)” value is “converted to the crystalline Form C anhydrate except when the water activity of the solvent was greater than 0.31”. Also, the “hygroscopicity (DVS)” value in series [1] (listed as Compound 1 Crystalline Form A hydrate) was “Slightly hygroscopic”; in series [1] (setting [6]) it was “slightly hygroscopic”. The DVS weight gain result in series [1] (setting [6]) is on record as “less than 0.5%”.
